According to US8933235B2, “Pyridinedione carboxamide inhibitors of endothelial lipase” (Bristol-Myers Squibb Company, priority 2011, dated 2015):
pIC50: −log10 of the molar value.

Biological target: T1, endothelial lipase (EL) (Homo sapiens, UniProt Q9Y5X9)
T1 construct: Conditioned media obtained from HT-1080 cells, which were transformed by RAGE technology (Athersys) to overexpress endogenous EL; endogenous in cells; conditioned medium used as the enzyme source
T1 sequence (Q9Y5X9 21-500): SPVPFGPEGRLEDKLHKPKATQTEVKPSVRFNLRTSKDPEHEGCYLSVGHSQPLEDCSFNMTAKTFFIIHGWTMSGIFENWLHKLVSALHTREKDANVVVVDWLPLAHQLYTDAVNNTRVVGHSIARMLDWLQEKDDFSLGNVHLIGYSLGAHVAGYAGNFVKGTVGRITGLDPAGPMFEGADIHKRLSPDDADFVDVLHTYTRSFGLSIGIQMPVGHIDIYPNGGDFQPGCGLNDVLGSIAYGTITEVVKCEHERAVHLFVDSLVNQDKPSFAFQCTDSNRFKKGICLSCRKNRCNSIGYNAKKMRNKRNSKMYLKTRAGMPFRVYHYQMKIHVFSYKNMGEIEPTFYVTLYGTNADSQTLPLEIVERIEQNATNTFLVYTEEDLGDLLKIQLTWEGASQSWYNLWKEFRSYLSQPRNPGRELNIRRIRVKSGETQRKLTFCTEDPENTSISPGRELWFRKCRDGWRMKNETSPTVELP
Assay: Endothelial lipase (EL) enzymatic assay with fluorescent substrate A10070 in DMPG vesicles
Type: biochemical
Conditions: conditioned media from HT-1080 cells overexpressing endogenous EL; 20 min preincubation at 37° C.; read-out: HLE_EL_CRC IC50
Method: Endothelial lipase activity was measured using a fluorescent substrate, A10070, (Invitrogen, CA) doped into an artificial vesicle containing DMPG (Avanti Polar Lipids) as the excipient. Vesicles were prepared by combining 285 uL of 1 mM DMPG in a 1:1 mixture of MeOH and CHCl3 with 15 uL of 1 mM A10070 in a 1:1 mixture of MeOH and CHCl3. The mixture was dried under nitrogen and resuspended in 150 uL of 50 mM HEPES pH 8.0 buffer containing 100 mM NaCl and 0.2 mM EDTA. The sample was allowed to sit at rt for 15 min and then was sonicated 3×4 mins on ice with a Branson Sonicator using duty cycle 1. This preparation provides vesicles with a mole fraction of 0.05 for the FRET substrate.
The enzymatic assay was measured using white, opaque 96-well half area plates. Each well contained 60 uL of assay buffer (50 mM HEPES pH 8.0, 50 mM NaCl and 1 mM CaCl2) and 2 ul of a DMSO solution containing compound of interest. Conditioned media obtained from HT-1080 cells, which were transformed by RAGE technology (Athersys) to overexpress endogenous EL, was added and the reaction was allowed to incubate for 20 min at 37° C. with gentle agitation. The reaction was started by the addition of 20 uL of a 1:4 dilution of vesicles. The final total reaction volume was 100 uL. The reaction rates were measured on a Gemini plate reader with an excitation wavelength of 488 nm and a emission of 530 nm. Readings were taken every 20 seconds for 10 min with agitation between each reading. The slope of the linear portion of the readout was used to calculate the rate of the reaction.

SMILES	pIC50
CC(C)C(CCc1ccc(Cl)c(Cl)c1)NC(=O)c1ccn(C)c(=O)c1O (single isomer, unassigned) [Example 115, N-(1-(3,4-dichlorophenyl)-4-methylpentan-3-yl)-3-hydroxy-1-methyl-2-oxo-1,2-dihydropyridine-4-carboxamide]	5.75
Cn1ccc(C(=O)NC(CCc2ccc(Cl)c(Cl)c2)C2CC2)c(O)c1=O (single isomer, unassigned) [Example 118, N-(1-cyclopropyl-3-(3,4-dichlorophenyl)propyl)-3-hydroxy-1-methyl-2-oxo-1,2-dihydropyridine-4-carboxamide]	5.57
Cn1ccc(C(=O)NC(CCc2ccc(Cl)c(Cl)c2)c2ccccc2)c(O)c1=O (single isomer, unassigned) [Example 120, N-(3-(3,4-dichlorophenyl)-1-phenylpropyl)-3-hydroxy-1-methyl-2-oxo-1,2-dihydropyridine-4-carboxamide]	6.78
Cn1c(-c2cc(F)cc(C(F)(F)F)c2)cc(C(=O)NCCCc2ccc(Cl)c(Cl)c2)c(O)c1=O [Example 7, N-(3-(3,4-dichlorophenyl)propyl)-6-(3-fluoro-5-(trifluoromethyl)phenyl)-3-hydroxy-1-methyl-2-oxo-1,2-dihydropyridine-4-carboxamide]	> 8.00
Cn1c(-c2ccc(Cl)c(C(F)(F)F)c2)cc(C(=O)NCCCc2ccc(Cl)c(Cl)c2)c(O)c1=O [Example 8, 6-(4-chloro-3-(trifluoromethyl)phenyl)-N-(3-(3,4-dichlorophenyl)propyl)-3-hydroxy-1-methyl-2-oxo-1,2-dihydropyridine-4-carboxamide]	> 8.00
Cn1c(-c2cc(F)cc(F)c2)cc(C(=O)NCCCc2ccc(Cl)c(Cl)c2)c(O)c1=O [Example 19, N-(3-(3,4-dichlorophenyl)propyl)-6-(3,5-difluorophenyl)-3-hydroxy-1-methyl-2-oxo-1,2-dihydropyridine-4-carboxamide]	> 8.00
COc1ccc(CCNC(=O)c2cc(-c3cc(F)cc(C(F)(F)F)c3)n(C)c(=O)c2O)cc1 [Example 51, 6-(3-fluoro-5-(trifluoromethyl)phenyl)-3-hydroxy-N-(4-methoxyphenethyl)-1-methyl-2-oxo-1,2-dihydropyridine-4-carboxamide]	6.75
Cn1c(-c2cc(F)cc(C(F)(F)F)c2)cc(C(=O)NCCc2cccc(C(F)(F)F)c2)c(O)c1=O [Example 56, 6-(3-fluoro-5-(trifluoromethyl)phenyl)-3-hydroxy-1-methyl-2-oxo-N-(3-(trifluoromethyl)phenethyl)-1,2-dihydropyridine-4-carboxamide]	6.67
Cn1c(-c2cc(F)cc(C(F)(F)F)c2)cc(C(=O)NCCc2ccc(C(F)(F)F)cc2)c(O)c1=O [Example 60, 6-(3-fluoro-5-(trifluoromethyl)phenyl)-3-hydroxy-1-methyl-2-oxo-N-(4-(trifluoromethyl)phenethyl)-1,2-dihydropyridine-4-carboxamide]	6.70
Cn1c(-c2cc(F)cc(C(F)(F)F)c2)cc(C(=O)NCCCOc2ccc(Cl)c(Cl)c2)c(O)c1=O [Example 77, N-(3-(3,4-dichlorophenoxy)propyl)-6-(3-fluoro-5-(trifluoromethyl)phenyl)-3-hydroxy-1-methyl-2-oxo-1,2-dihydropyridine-4-carboxamide]	> 8.00
Cn1c(-c2cc(F)cc(C(F)(F)F)c2)cc(C(=O)NCCCOc2ccccc2[N+](=O)[O-])c(O)c1=O [Example 81, 6-(3-fluoro-5-(trifluoromethyl)phenyl)-3-hydroxy-1-methyl-N-(3-(2-nitrophenoxy)propyl)-2-oxo-1,2-dihydropyridine-4-carboxamide]	> 8.00
Cn1c(C(F)(F)F)cc(C(=O)NCCCOc2ccccc2Cl)c(O)c1=O [Example 88, N-(3-(2-chlorophenoxy)propyl)-3-hydroxy-1-methyl-2-oxo-6-(trifluoromethyl)-1,2-dihydropyridine-4-carboxamide]	> 8.00
COc1c(C(=O)NCCCc2ccc(Cl)c(Cl)c2)ccn(C)c1=O [Example 113, N-(3-(3,4-dichlorophenyl)propyl)-3-methoxy-1-methyl-2-oxo-1,2-dihydropyridine-4-carboxamide]	5.24
CC(CCc1ccccc1)NC(=O)c1ccn(C)c(=O)c1O (stereo not drawn) [Example 126, 3-hydroxy-1-methyl-2-oxo-N-(4-phenylbutan-2-yl)-1,2-dihydropyridine-4-carboxamide]	5.61
Cn1ccc(C(=O)NCCc2ccccc2Cl)c(O)c1=O [Example 127, N-(2-chlorophenethyl)-3-hydroxy-1-methyl-2-oxo-1,2-dihydropyridine-4-carboxamide]	5.06
Cn1ccc(C(=O)NCc2ccc(C(F)(F)F)cc2)c(O)c1=O [Example 129, 3-hydroxy-1-methyl-2-oxo-N-(4-(trifluoromethyl)benzyl)-1,2-dihydropyridine-4-carboxamide]	5.45

Further lines, results first:

pIC50	SMILES
5.16	CC(C)C(CCc1ccc(Cl)c(Cl)c1)NC(=O)c1ccn(C)c(=O)c1O (single isomer, unassigned) [Example 114, N-(1-(3,4-dichlorophenyl)-4-methylpentan-3-yl)-3-hydroxy-1-methyl-2-oxo-1,2-dihydropyridine-4-carboxamide]
5.79	Cn1ccc(C(=O)NC(CCc2ccc(Cl)c(Cl)c2)C2CC2)c(O)c1=O (single isomer, unassigned) [Example 119, N-(1-cyclopropyl-3-(3,4-dichlorophenyl)propyl)-3-hydroxy-1-methyl-2-oxo-1,2-dihydropyridine-4-carboxamide]
6.70	Cn1c(-c2cccc(C(=O)O)c2)cc(C(=O)NCCCc2ccc(Cl)c(Cl)c2)c(O)c1=O [Example 45, 3-(4-(3-(3,4-dichlorophenyl)propylcarbamoyl)-5-hydroxy-1-methyl-6-oxo-1,6-dihydropyridin-2-yl)benzoic acid]
> 8.00	Cn1c(-c2cc(F)cc(C(F)(F)F)c2)cc(C(=O)NCCCOc2ccccc2Cl)c(O)c1=O [Example 48, N-(3-(2-chlorophenoxy)propyl)-6-(3-fluoro-5-(trifluoromethyl)phenyl)-3-hydroxy-1-methyl-2-oxo-1,2-dihydropyridine-4-carboxamide]
> 8.00	Cn1c(-c2cc(F)cc(C(F)(F)F)c2)cc(C(=O)NCCCOc2ccc(F)cc2)c(O)c1=O [Example 64, 6-(3-fluoro-5-(trifluoromethyl)phenyl)-N-(3-(4-fluorophenoxy)propyl)-3-hydroxy-1-methyl-2-oxo-1,2-dihydropyridine-4-carboxamide]
> 8.00	COC(=O)c1cccc(OCCCNC(=O)c2cc(-c3cc(F)cc(C(F)(F)F)c3)n(C)c(=O)c2O)c1 [Example 71, methyl 3-(3-(6-(3-fluoro-5-(trifluoromethyl)phenyl)-3-hydroxy-1-methyl-2-oxo-1,2-dihydropyridine-4-carboxamido)propoxy)benzoate]
> 8.00	Cn1c(C(F)(F)F)cc(C(=O)NCCCOc2ccccc2C(F)(F)F)c(O)c1=O [Example 89, 3-hydroxy-1-methyl-2-oxo-6-(trifluoromethyl)-N-(3-(2-(trifluoromethyl)phenoxy)propyl)-1,2-dihydropyridine-4-carboxamide]
5.18	COc1ccc(CCNC(=O)c2ccn(C)c(=O)c2O)cc1 [Example 128, 3-hydroxy-N-(4-methoxyphenethyl)-1-methyl-2-oxo-1,2-dihydropyridine-4-carboxamide]
